From EPA's ToxValDB 9.5 (doi:10.2903/j.efsa.2011.2088)

Experiments:
[1] = tested on: Anas platyrhynchos; details: short-term; oral; feed; mortality
[2] = tested on: Apis mellifera; details: acute; duration: 48 hours; dermal; mortality
[3] = tested on: Bibionidae; details: chronic/long-term; duration: 28 days
[4] = tested on: Canidae; details: chronic; duration: 1 years; oral; diet; M/F; Beagle; hematological
[5] = tested on: Colinus virginianus; details: for LD50: acute, oral, mortality
[6] = tested on: Daphnia magna; details: chronic/long-term; duration: 21 days; mortality
[7] = tested on: Folsomia candida; details: chronic/long-term; duration: 28 days
[8] = tested on: Oncorhynchus mykiss; details: acute; duration: 96 hours; mortality
[9] = tested on: Pimephales promelas; details: chronic/long-term; duration: 34 days; reproduction
[10] = tested on: Rattus norvegicus
[11] = tested on: Tagia sp.; details: mortality
[12] = tested on: Aphidius rhopalosiphi; experiment: LR50; higher = less toxic; details: not reported; mortality
[13] = tested on: Typhlodromus pyri; experiment: LR50; higher = less toxic; details: not reported; mortality

`O=C(NC(=O)c1c(F)cccc1F)Nc1ccc(Oc2ccc(C(F)(F)F)cc2Cl)cc1F` [Flufenoxuron] was tested, and the LD50 [1] was over 1240 mg/kg-day, the LD50 [2] was over 100 µg/piece and the NOEC [3] was 3.6e-05 mg/L. The NOAEL [4] was at most 3.8 mg/kg-day, the LD50 ([5]; diet) was over 1240 mg/kg-day and the LD50 [5] was over 2000 mg/kg-day. For the same compound, the NOEL ([5]; reproduction developmental) was 9.76 mg/kg-day, the NOEC [6] was 3.24e-06 mg/L and the NOEC [7] was 0.11 mg/kg. It also gave an LC50 [8] of over 5 ng/mL, an NOEC [9] of 0.00082 mg/L and an LD50 ([10]; acute, oral, mortality) of over 3000 mg/kg-day. It also gave an NOAEL ([10]; reproduction developmental, growth) of 4.3 mg/kg-day, an LC50 ([11]; acute, duration: 14 days) of over 1000 mg/kg and an NOEC ([11]; chronic/long-term, duration: 56 days) of 5 mg/kg. The LR50 [12] was over 386 g/ha and the LR50 [13] was 73 g/ha.
